Assay results as given in patent publication US20230250123A1, “GUT MICROBIOTA BIOACTIVATED PDE4 INHIBITOR PRECURSORS” (Giiant Pharma Inc., priority 2020, published 2023).

Experiments:
[1] = Negative control: incubation in mouse feces extract supernatant inactivated by boiling; type: in vitro ADME; conditions: 24 hours, mouse feces supernatant boiled 10 minutes (no enzyme activities)
Procedure: (§1) In vitro rate of glycoside prodrugs hydrolysis. The metabolic stability of prodrug candidates to release the parent PDE4 inhibitor could be assessed in vitro according, but not restricted, to the following protocol: feces were collected overnight on a mixture of dry and wet ice in a metabolic cage. Ten volumes (v/w; 30 mL) of 100 mM phosphate buffer (pH 6.5) were added to 3 g of freshly collected rodent feces. The mixture was homogenized with a Stomacher Circulator 400 (2 × 1 min-cycles at 225 rpm). The mixture was transferred to a 50 mL tubes, centrifuged at 10 000xg for 10 min (4° C.) and the supernatant was passed through a 0.45 µm-filter. In a 96 deep-well plate, 198 µL of feces supernatant were aliquoted in 2 wells per compound. Each compound, including positive control, was tested in duplicate. Then 2 µL of 10 mM stock solution of each test compound were spiked in individual wells (duplicate) at a final concentration of 100 µM and samples were sealed and mixed 30 sec at 1000 rpm using a vortexer. Samples were incubated at 37° C. for the desired time in the Thermomixer with constant agitation (300 rpm). At desired time-point, 25 µL of reaction mixture was added to 225 µL of ice-cold quenching solution (acetonitrile + 0.1% (v/v) formic acid) to stop the bacterial enzymatic activity. The quenched incubates were mixed and centrifuged 10 min at 21 000xg at 4° C. A real t0 (no metabolism, 100% total recovery of unchanged prodrug) was generated by adding 22.5 µL of feces supernatant to 225 µL of ice-cold quenching solution (acetonitrile + 0.1% (v/v) formic acid). Then 2.5 µL of 1 mM solution of each test compounds was added, sealed, mixed thoroughly and centrifuged 10 min at 21 000xg at 4° C. All samples, including analytical standards, were analyzed by LC-MS/MS to measure the concentration of the parent PDE4 inhibitor released and the concentration of the corresponding prodrug remaining. […]

[2] = Bidirectional Caco-2 permeability assay; type: in vitro ADME; conditions: human; Caco-2, 10 µM, apical pH 6.0 / basolateral pH 7.4, average of 2 determinations
Procedure: In vitro glycoside prodrug permeability assessment. The permeability of the glycoside prodrugs were measured using the bidirectional Caco-2 assay. Caco-2 cells were seeded onto permeable polycarbonate supports in 12-well Costar Transwell plates and allowed to grow and differentiate for 21-25 days. On day 24, culture medium (DMEM supplemented with 10% FBS, 1% non-essential amino acids and penicillin/streptomycin) was removed from both sides of the transwell inserts and cells were rinsed with warm HBSS. […] The buffer in the donor chamber (apical side for A-to-B assay, basolateral side for B-to-A assay) was removed and replaced with the working solution (10 µM test article in transport buffer). The plates were then placed at 37° C. under light agitation. At designated time points (30, 60 and 90 min); an aliquot of transport buffer from the receiver chamber was removed and replenished with fresh transport buffer. Samples were quenched with ice-cold CH3CN containing internal standard and then centrifuged to precipitate the protein. Resulting supernatants were further diluted with 50/50 ACN/H2O (H2O only for Atenolol) and submitted for LC/MS/MS analysis. […] Atenolol and propranolol were tested as low and […] permeability references. […] The apparent permeability (Papp, measured in cm/s) of a compound is determined according to the following formula: […]
Where dQ/dt is the net rate of appearance in the receiver compartment, A is the area of the Transwell measured in cm^2 (1.12 cm^2), C0 is the initial concentration of compound added to the donor chamber and 60 is the conversion factor for the minute to second.

[3] = In vitro rate of glycoside prodrug hydrolysis in feces supernatant, mouse; type: in vitro ADME; conditions: 100 µM, 37° C., pH 6.5, 24 hr
Procedure: (§2) In vitro rate of glycoside prodrugs hydrolysis. The metabolic stability of prodrug candidates to release the parent PDE4 inhibitor could be assessed in vitro according, but not restricted, to the following protocol: feces were collected overnight on a mixture of dry and wet ice in a metabolic cage. Ten volumes (v/w; 30 mL) of 100 mM phosphate buffer (pH 6.5) were added to 3 g of freshly collected rodent feces. The mixture was homogenized with a Stomacher Circulator 400 (2 × 1 min-cycles at 225 rpm). The mixture was transferred to a 50 mL tubes, centrifuged at 10 000xg for 10 min (4° C.) and the supernatant was passed through a 0.45 µm-filter. In a 96 deep-well plate, 198 µL of feces supernatant were aliquoted in 2 wells per compound. Each compound, including positive control, was tested in duplicate. Then 2 µL of 10 mM stock solution of each test compound were spiked in individual wells (duplicate) at a final concentration of 100 µM and samples were sealed and mixed 30 sec at 1000 rpm using a vortexer. Samples were incubated at 37° C. for the desired time in the Thermomixer with constant agitation (300 rpm). At desired time-point, 25 µL of reaction mixture was added to 225 µL of ice-cold quenching solution (acetonitrile + 0.1% (v/v) formic acid) to stop the bacterial enzymatic activity. The quenched incubates were mixed and centrifuged 10 min at 21 000xg at 4° C. A real t0 (no metabolism, 100% total recovery of unchanged prodrug) was generated by adding 22.5 µL of feces supernatant to 225 µL of ice-cold quenching solution (acetonitrile + 0.1% (v/v) formic acid). Then 2.5 µL of 1 mM solution of each test compounds was added, sealed, mixed thoroughly and centrifuged 10 min at 21 000xg at 4° C. All samples, including analytical standards, were analyzed by LC-MS/MS to measure the concentration of the parent PDE4 inhibitor released and the concentration of the corresponding prodrug remaining. A set criteria of 100% recovery is targeted where the summation of the % of prodrug remaining and the % of parent PDE4 inhibitor released should be 100% with an experimental error tolerance of ± 20%. When prodrugs represented by Formula (I) were incubated 24 hours under the conditions described above using mouse, rat and dog feces, the glycoside prodrugs were hydrolyzed to release the corresponding parent PDE4 inhibitor III (Table 3). As a negative control, when compound 4, 10 and 21 were incubated 24 hours under the conditions described above but in the absence of enzyme activities, using mouse feces extract supernatant inactivated by boiling the supernatant 10 minutes, 100% of the prodrugs were recovered unchanged.

[4] = In vitro rate of glycoside prodrug hydrolysis in feces supernatant, rat; type: in vitro ADME; conditions: 100 µM, 37° C., pH 6.5, 24 hr
Procedure: as §2

β-D-glucuronidase = assay: Positive control: incubation with β-D-glucuronidase in phosphate buffer; type: in vitro ADME; conditions: β-D-glucuronidase 50U/mL, phosphate buffer pH 6.5, 37° C., 24 hours
[5] = tested on: type-IV cAMP-specific phosphodiesterases; assay: Inhibitory potency against PDE4 isozymes (isozyme not given); type: biochemical; conditions: sample contaminated with 0.17% of IIIa, which accounts for 100% of the potency recorded; read-out: IC50 (PDE4, isozyme not stated)
[6] = In vitro rate of glycoside prodrug hydrolysis in feces supernatant, dog; type: in vitro ADME; conditions: 100 µM, 37° C., pH 6.5, 24 hr
Procedure: as §1, with “At desired time-point, 25 µL of reaction mixture was added to 225 µL of ice-cold quenching solution (acetonitrile + 0.1% (v/v) formic acid) to stop the bacterial enzymatic activity. The quenched incubates were mixed and centrifuged 10 min at 21 000xg at 4° C. A real t0 (no metabolism, 100% total recovery of unchanged prodrug) was generated by adding 22.5 µL of feces supernatant to 225 µL of ice-cold quenching solution (acetonitrile + 0.1% (v/v) formic acid). Then 2.5 µL of 1 mM solution of each test compounds was added, sealed, mixed thoroughly and centrifuged 10 min at 21 000xg at 4° C.” left out

[7] = tested on: LPS-induced TNFα in human whole blood; assay: LPS-induced TNFα assay in human whole blood; type: cell-based; conditions: human whole blood from 12 healthy volunteers, LPS 1 µg/mL, 24 h; read-out: average IC50, TNFα inhibition
PDE4B1 = PDE4B1 (Homo sapiens, UniProt Q07343); assay: Inhibitory potency against PDE4 isozymes (FAM-cAMP fluorescence polarization), PDE4B1
PDE4D2 = PDE4D2 (Homo sapiens, UniProt Q08499); assay: Inhibitory potency against PDE4 isozymes (FAM-cAMP fluorescence polarization), PDE4D2
PDE4A1A = PDE4A1A (Homo sapiens, UniProt P27815); assay: Inhibitory potency against PDE4 isozymes (FAM-cAMP fluorescence polarization), PDE4A1A
PDE4A1A, sequence (P27815 1-647 isoform P27815-4): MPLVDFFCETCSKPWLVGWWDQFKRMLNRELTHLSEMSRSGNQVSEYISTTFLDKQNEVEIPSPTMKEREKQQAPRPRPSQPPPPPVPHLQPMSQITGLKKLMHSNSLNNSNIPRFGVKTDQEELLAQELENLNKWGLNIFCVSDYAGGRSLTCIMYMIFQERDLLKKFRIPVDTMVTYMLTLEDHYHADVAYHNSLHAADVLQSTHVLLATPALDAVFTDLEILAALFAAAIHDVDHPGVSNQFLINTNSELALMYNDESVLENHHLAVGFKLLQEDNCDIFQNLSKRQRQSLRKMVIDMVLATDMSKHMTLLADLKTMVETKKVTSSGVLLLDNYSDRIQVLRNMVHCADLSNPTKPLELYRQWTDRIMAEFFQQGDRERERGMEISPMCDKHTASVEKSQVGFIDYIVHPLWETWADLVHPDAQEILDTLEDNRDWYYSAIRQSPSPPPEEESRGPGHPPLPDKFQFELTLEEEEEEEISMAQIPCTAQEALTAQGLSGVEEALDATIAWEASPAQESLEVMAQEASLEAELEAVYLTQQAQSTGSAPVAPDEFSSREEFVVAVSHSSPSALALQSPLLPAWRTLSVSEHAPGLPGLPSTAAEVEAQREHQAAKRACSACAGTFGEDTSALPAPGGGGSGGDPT

PDE4D2, sequence (Q08499 303-809 limits assumed): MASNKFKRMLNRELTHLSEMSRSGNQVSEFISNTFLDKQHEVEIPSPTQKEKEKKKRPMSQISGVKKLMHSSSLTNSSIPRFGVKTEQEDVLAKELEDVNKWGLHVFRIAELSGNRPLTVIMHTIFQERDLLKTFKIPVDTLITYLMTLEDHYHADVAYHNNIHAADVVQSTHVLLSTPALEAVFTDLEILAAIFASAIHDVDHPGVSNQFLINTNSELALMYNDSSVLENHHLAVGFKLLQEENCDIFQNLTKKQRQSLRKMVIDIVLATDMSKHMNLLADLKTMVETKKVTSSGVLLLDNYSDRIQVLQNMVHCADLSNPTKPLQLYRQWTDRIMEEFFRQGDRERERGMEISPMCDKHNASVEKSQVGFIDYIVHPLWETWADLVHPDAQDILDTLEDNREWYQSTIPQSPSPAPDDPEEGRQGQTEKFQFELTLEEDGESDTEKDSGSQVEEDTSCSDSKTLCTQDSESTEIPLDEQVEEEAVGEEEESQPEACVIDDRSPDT
PDE4B1, sequence (Q07343 whole entry, species assumed): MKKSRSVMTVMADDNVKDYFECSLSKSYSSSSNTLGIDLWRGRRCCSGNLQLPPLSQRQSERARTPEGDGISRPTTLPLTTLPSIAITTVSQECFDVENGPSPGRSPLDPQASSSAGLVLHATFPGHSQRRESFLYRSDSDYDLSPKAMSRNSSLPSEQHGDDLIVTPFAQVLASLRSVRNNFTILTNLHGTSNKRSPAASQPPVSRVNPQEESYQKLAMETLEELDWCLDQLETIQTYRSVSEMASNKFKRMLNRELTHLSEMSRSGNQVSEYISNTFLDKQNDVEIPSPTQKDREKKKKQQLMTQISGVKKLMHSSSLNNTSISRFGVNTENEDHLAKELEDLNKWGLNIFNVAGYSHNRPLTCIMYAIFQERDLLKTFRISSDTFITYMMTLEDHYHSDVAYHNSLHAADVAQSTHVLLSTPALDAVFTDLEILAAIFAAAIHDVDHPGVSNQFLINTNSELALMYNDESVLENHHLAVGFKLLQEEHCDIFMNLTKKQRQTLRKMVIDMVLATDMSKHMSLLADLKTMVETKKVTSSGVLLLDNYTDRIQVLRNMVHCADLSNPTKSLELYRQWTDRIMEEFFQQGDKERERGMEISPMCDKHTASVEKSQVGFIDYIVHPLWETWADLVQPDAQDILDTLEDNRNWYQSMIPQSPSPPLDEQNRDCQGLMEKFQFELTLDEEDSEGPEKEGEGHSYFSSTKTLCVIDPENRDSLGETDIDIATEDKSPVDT

Papp A→B at 10 µM [2]	Prodrug Remaining @ 24 hr (%) [3]	SMILES	Prodrug Remaining @ 24 hr (%) [4]	other results
		CC(C)(O)c1ccc([C@@H](Cc2ccc(OC3O[C@H](CO)[C@@H](O)[C@H](O)[C@H]3N)nc2)c2ccc(OC(F)F)c(OC3CC3)c2)cn1 (mixture of isomers) [Compound 21, (2R,3S,4R,5R)-5-amino-6-((5-((S)-2-(3-cyclopropoxy-4-(difluoromethoxy)phenyl)-2-(6-(2-hydroxypropan-2-yl)pyridin-3-yl)ethyl)pyridin-2-yl)oxy)-2-(hydroxymethyl)tetrahydro-2H-pyran-3,4-diol]		prodrug recovered unchanged [1]: 100%
0.8 nm/s	0.1%	CC(C)(O)c1ccc([C@@H](Cc2ccc(O[C@@H]3O[C@H](CO)[C@@H](O)[C@H](O)[C@H]3O)nc2)c2ccc(OC(F)F)c(OC3CC3)c2)cn1 [Compound 4, (2S,3R,4S,5S,6R)-2-((5-((S)-2-(3-cyclopropoxy-4-(difluoromethoxy)phenyl)-2-(6-(2-hydroxypropan-2-yl)pyridin-3-yl)ethyl)pyridin-2-yl)oxy)-6-(hydroxymethyl)tetrahydro-2H-pyran-3,4,5-triol]	0.0%	prodrug recovered unchanged [1]: 100%
2 nm/s	62%	N[C@H]1[C@H](Oc2ccc(C[C@@H](c3ccc(OC(F)F)c(OC4CC4)c3)c3cnc(C(O)(C(F)(F)F)C(F)(F)F)s3)cn2)O[C@H](CO)[C@@H](O)[C@@H]1O [Compound 22, (2R,3S,4R,5R,6S)-5-amino-6-((5-((S)-2-(3-cyclopropoxy-4-(difluoromethoxy)phenyl)-2-(2-(1,1,1,3,3,3-hexafluoro-2-hydroxypropan-2-yl)thiazol-5-yl)ethyl)pyridin-2-yl)oxy)-2-(hydroxymethyl)tetrahydro-2H-pyran-3,4-diol]		IC50 [5]: > 0.1 µM
	65%	CC(C)(O)c1ccc([C@@H](Cc2ccc(O[C@@H]3O[C@H](CO)[C@@H](O)[C@H](O)[C@H]3N)nc2)c2ccc(OC(F)F)c(OC3CC3)c2)cn1 [Compound 23, (2R,3S,4R,5R,6S)-5-amino-6-((5-((S)-2-(3-cyclopropoxy-4-(difluoromethoxy)phenyl)-2-(6-(2-hydroxypropan-2-yl)pyridin-3-yl)ethyl)pyridin-2-yl)oxy)-2-(hydroxymethyl)tetrahydro-2 H-pyran-3,4-diol]		Prodrug Remaining @ 24 hr (%) [6]: 75%
28 nm/s	96%	C[N+](C)(C)[C@H]1[C@H](Oc2ccc(C[C@@H](c3ccc(OC(F)F)c(OC4CC4)c3)c3cnc(C(O)(C(F)(F)F)C(F)(F)F)s3)cn2)O[C@H](CO)[C@@H](O)[C@@H]1O.[I-] [Compound 26, (2S,3R,4R,5S,6R)-2-((5-((S)-2-(3-cyclopropoxy-4-(difluoromethoxy)phenyl)-2-(2-(1,1,1,3,3,3-hexafluoro-2-hydroxypropan-2-yl)thiazol-5-yl)ethyl)pyridin-2-yl)oxy)-4,5-dihydroxy-6-(hydroxymethyl)-N,N,N-trimethyltetrahydro-2H-pyran-3-aminium iodide]		
0.2 nm/s		CC(C)(O)c1ccc([C@@H](Cc2ccc(O[C@@H]3O[C@H](CO)[C@@H](O[C@@H]4O[C@H](CO)[C@@H](O)[C@H](O)[C@H]4O)[C@H](O)[C@H]3O)nc2)c2ccc(OC(F)F)c(OC3CC3)c2)cn1 [Compound 31, (2S,3R,4S,5S,6R)-2-(((2R,3S,4R,5R,6S)-6-((5-((S)-2-(3-cyclopropoxy-4-(difluoromethoxy)phenyl)-2-(6-(2-hydroxypropan-2-yl)pyridin-3-yl)ethyl)pyridin-2-yl)oxy)-4,5-dihydroxy-2-(hydroxymethyl)tetrahydro-2H-pyran-3-yl)oxy)-6-(hydroxymethyl)tetrahydro-2H-pyran-3,4,5-triol]	0.6%	
191 nm/s		O=c1ccc(C[C@@H](c2ccc(OC(F)F)c(OC3CC3)c2)c2cnc(C(O)(C(F)(F)F)C(F)(F)F)s2)c[nH]1 [IIIa, (S)-5-(2-(3-cyclopropoxy-4-(difluoromethoxy)phenyl)-2-(2-(1,1,1,3,3,3-hexafluoro-2-hydroxypropan-2-yl)thiazol-5-yl)ethyl)pyridin-2(1H)-one]		IC50 [7]: < 0.05 µM; IC50 (PDE4B1): < 0.01 µM; IC50 (PDE4D2): < 0.01 µM; IC50 (PDE4A1A): < 0.01 µM

SMILES	Papp A→B at 10 µM [2]	Prodrug Remaining @ 24 hr (%) [3]	Prodrug Remaining @ 24 hr (%) [4]	other results
CC(=O)OC[C@H]1O[C@@H](Oc2ccc(C[C@H](c3ccc(C(C)(C)O)nc3)c3ccc(OC(F)F)c(OC4CC4)c3)cn2)[C@H](O)[C@@H](OC(C)=O)[C@@H]1OC(C)=O [Compound 5, (2R,3R,4R,5R,6S)-2-(acetoxymethyl)-6-((5-((S)-2-(3-cyclopropoxy-4-(difluoromethoxy)phenyl)-2-(6-(2-hydroxypropan-2-yl)pyridin-3-yl)ethyl)pyridin-2-yl)oxy)-5-hydroxytetrahydro-2H-pyran-3,4-diyl diacetate]	9 nm/s	0.0%	0.0%	
CC(C)(O)c1ccc([C@@H](Cc2ccc(O[C@@H]3O[C@H](C(=O)[O-])[C@@H](O)[C@H](O)[C@H]3O)nc2)c2ccc(OC(F)F)c(OC3CC3)c2)cn1.[Li+] [Compound 9, lithium (2S,3S,4S,5R,6S)-6-((5-((S)-2-(3-cyclopropoxy-4-(difluoromethoxy)phenyl)-2-(6-(2-hydroxypropan-2-yl)pyridin-3-yl)ethyl)pyridin-2-yl)oxy)-3,4,5-trihydroxytetrahydro-2H-pyran-2-carboxylate]		3.3%	4.2%	prodrug recovered unchanged (β-D-glucuronidase): 2%
